Experimental data taken from US10696615B2, “Prenylated hydroxystilbenes” (The University of Sydney, priority 2011, dated 2020).

How the values were obtained:
Type in all cases: cell-based, human
[1] = test system: UACC-257; test: NCI in vitro cancer screen, Melanoma; settings: UACC-257, unit not printed (M)
[2] = test system: UACC-62; test: NCI in vitro cancer screen, Melanoma; settings: UACC-62, unit not printed (M)
[3] = test system: COLO 205; test: NCI in vitro cancer screen, Colon Cancer; settings: COLO, unit not printed (M)
[4] = test system: T-47D; test: NCI in vitro cancer screen, Breast Cancer; settings: unit not printed (M)
[5] = test system: SK-MEL-5; test: NCI in vitro cancer screen, Melanoma; settings: SK-MEL-5, unit not printed (M)
[6] = test system: OVCAR-5; test: NCI in vitro cancer screen, Ovarian Cancer; settings: OVCAR-5, unit not printed (M)
[7] = test system: M14; test: NCI in vitro cancer screen, Melanoma; settings: M14, unit not printed (M)
[8] = test system: SNB-19; test: NCI in vitro cancer screen, CNS Cancer; settings: SNB-19, unit not printed (M)
[9] = test system: SR; test: NCI in vitro cancer screen, Leukemia; settings: unit not printed (M)
[10] = test system: RXF-393; test: NCI in vitro cancer screen, Renal Cancer; settings: Homo sapiens, RXF 393, unit not printed (M)
[11] = test system: SF-295; test: NCI in vitro cancer screen, CNS Cancer; settings: SF-295, unit not printed (M)
[12] = test system: SK-OV-3; test: NCI in vitro cancer screen, Ovarian Cancer; settings: SK-OV-3, unit not printed (M)
[13] = test system: HOP-62; test: NCI in vitro cancer screen, Non-Small Cell Lung Cancer; settings: HOP (first HOP line), unit not printed (M)
[14] = test system: SK-MEL-28; test: NCI in vitro cancer screen, Melanoma; settings: SK-MEL-28, unit not printed (M)
[15] = test system: MOLT-4; test: NCI in vitro cancer screen, Leukemia; settings: MOLT, unit not printed (M)
[16] = test system: RPMI-8226; test: NCI in vitro cancer screen, Leukemia; settings: RPMI, unit not printed (M)
[17] = test system: OVCAR-8; test: NCI in vitro cancer screen, Ovarian Cancer; settings: OVCAR-8, unit not printed (M)
[18] = test system: HOP-92; test: NCI in vitro cancer screen, Non-Small Cell Lung Cancer; settings: HOP (second HOP line), unit not printed (M)
[19] = test system: NCI-H460; test: as above; settings: NCI-H460, unit not printed (M)
[20] = test system: HCT-116; test: NCI in vitro cancer screen, Colon Cancer; settings: HCT-116, unit not printed (M)
[21] = test system: LOX IMVI; test: NCI in vitro cancer screen, Melanoma; settings: unit not printed (M)
[22] = test system: ADR-RES (NCI/ADR-RES); test: NCI in vitro cancer screen, Ovarian Cancer; settings: NCI/ADR-RES, unit not printed (M)
[23] = test system: MDA-MB-468; test: NCI in vitro cancer screen, Breast Cancer; settings: MDA-MB-468, unit not printed (M)
[24] = test system: DU-145; test: NCI in vitro cancer screen, Prostate Cancer; settings: DU-145, unit not printed (M)
[25] = test system: K-562; test: NCI in vitro cancer screen, Leukemia; settings: K-562, unit not printed (M)
[26] = test system: 786-0; test: NCI in vitro cancer screen, Renal Cancer; settings: 786-0, unit not printed (M)
[27] = test system: UO-31; test: NCI in vitro cancer screen, Renal Cancer; settings: UO-31, unit not printed (M)
[28] = test system: HT29; test: NCI in vitro cancer screen, Colon Cancer; settings: HT29, unit not printed (M)
[29] = test system: HL-60 (TB); test: NCI in vitro cancer screen, Leukemia; settings: HL-60(TB), unit not printed (M)
[30] = test system: NCI-H23; test: NCI in vitro cancer screen, Non-Small Cell Lung Cancer; settings: NCI-H23, unit not printed (M)
[31] = test system: OVCAR-4; test: NCI in vitro cancer screen, Ovarian Cancer; settings: OVCAR-4, unit not printed (M)
[32] = Homo sapiens, read-out: LC50 (the source's name)

COc1cc(/C=C/c2cc(O)cc(O)c2CC=C(C)C)ccc1O [USYDS10, (E)-2-(3-methyl-2-buten-1-yl)-3,4′,5-trihydroxy-3′-methoxystilbene]
GI50 ([1]; Homo sapiens): 11.7 µM
CC50 [1, 32]: 73.7 µM
TGI [1]: 2.94E−5
GI50 ([2]; Homo sapiens): 0.521 µM
CC50 [2, 32]: 42.8 µM
TGI [2]: 1.55E−5
TGI [3]: 2.97E−5
GI50 ([3]; Homo sapiens, COLO 205): 15.3 µM
CC50 ([3]; Homo sapiens, COLO 205, read-out: LC50 (the source's name)): 57.7 µM
GI50 ([4]; Homo sapiens, T47D): 1.47 µM
CC50 ([4]; Homo sapiens, T47D, read-out: LC50 (the source's name)): > 100 µM
TGI [4]: 2.47E−5
GI50 ([5]; Homo sapiens): 0.291 µM
CC50 [5, 32]: 36 µM
TGI [5]: 1.27E−5
GI50 ([6]; Homo sapiens): 8.92 µM
CC50 [6, 32]: 83.1 µM
TGI [6]: 2.80E−5
GI50 ([7]; Homo sapiens): 0.284 µM
CC50 [7, 32]: 41.6 µM
TGI [7]: 1.42E−5
GI50 ([8]; Homo sapiens): 0.613 µM
CC50 [8, 32]: > 100 µM
TGI [8]: 2.28E−5
GI50 ([9]; Homo sapiens): 0.188 µM
CC50 [9, 32]: > 100 µM
TGI [9]: >1.00E−4
GI50 [10]: 0.221 µM
CC50 ([10]; read-out: LC50 (the source's name)): 37.6 µM
GI50 ([11]; Homo sapiens): 2.01 µM
CC50 [11, 32]: > 100 µM
TGI [11]: 1.91E−5
GI50 ([12]; Homo sapiens): 0.422 µM
CC50 [12, 32]: 34.2 µM
TGI [12]: 1.14E−5
TGI [13]: 1.77E−5
GI50 ([13]; Homo sapiens, HOP-62): 0.581 µM
CC50 ([13]; Homo sapiens, HOP-62, read-out: LC50 (the source's name)): 42.3 µM
GI50 ([14]; Homo sapiens): 0.572 µM
LC50 ([14]; Homo sapiens): 43 µM
TGI [14]: 1.69E−5
GI50 ([15]; Homo sapiens, MOLT-4): 0.596 µM
CC50 ([15]; Homo sapiens, MOLT-4, read-out: LC50 (the source's name)): > 100 µM
TGI [15]: 1.99E−5
GI50 ([16]; Homo sapiens, RPMI-8226): 0.324 µM
CC50 ([16]; Homo sapiens, RPMI-8226, read-out: LC50 (the source's name)): > 100 µM
TGI [16]: 1.63E−5
GI50 ([17]; Homo sapiens): 0.467 µM
CC50 [17, 32]: > 100 µM
TGI [17]: 6.50E−5
TGI [18]: 2.63E−5
GI50 ([18]; Homo sapiens, HOP-92): 0.398 µM
CC50 ([18]; Homo sapiens, HOP-92, read-out: LC50 (the source's name)): 93.2 µM
GI50 ([19]; Homo sapiens): 0.381 µM
CC50 [19, 32]: 66.1 µM
TGI [19]: 1.29E−5
TGI [20]: 1.30E−5
GI50 ([20]; Homo sapiens): 0.48 µM
LC50 (concentration killing 50% of cells) ([20]; Homo sapiens): 42.7 µM
GI50 ([21]; Homo sapiens): 0.572 µM
CC50 [21, 32]: 80 µM
TGI [21]: 1.93E−5
GI50 ([22]; Homo sapiens): 0.183 µM
CC50 [22, 32]: > 100 µM
TGI [22]: 8.04E−7
GI50 ([23]; Homo sapiens): 0.373 µM
CC50 [23, 32]: 44.9 µM
TGI [23]: 1.44E−5
TGI [24]: 2.05E−5
GI50 ([24]; Homo sapiens): 0.442 µM
CC50 [24, 32]: > 100 µM
GI50 ([25]; Homo sapiens, K562): 0.386 µM
CC50 ([25]; Homo sapiens, K562, read-out: LC50 (the source's name)): > 100 µM
TGI [25]: 3.17E−5
TGI [26]: 2.01E−5
GI50 ([26]; Homo sapiens): 0.681 µM
LC50 (50% net cell kill) ([26]; Homo sapiens): 74.5 µM
GI50 ([27]; Homo sapiens): 0.878 µM
CC50 [27, 32]: 95.2 µM
TGI [27]: 2.17E−5
TGI [28]: 2.13E−5
GI50 ([28]; Homo sapiens, HT-29): 5.72 µM
CC50 ([28]; Homo sapiens, HT-29, read-out: LC50 (the source's name)): 69 µM
TGI [29]: 1.88E−6
GI50 ([29]; Homo sapiens): 0.327 µM
CC50 [29, 32]: > 100 µM
GI50 ([30]; Homo sapiens): 0.38 µM
LC50 ([30]; Homo sapiens): 78.3 µM
TGI [30]: 1.52E−5
GI50 ([31]; Homo sapiens): 1.03 µM
CC50 [31, 32]: 57.7 µM
TGI [31]: 1.82E−5
